Assay results: ChEMBL document CHEMBL1128850, “Synthesis and qsar of dequalinium analogues AS K+ channel blockers. investigations on the role of the 4-amino group” (Bioorg Med Chem Lett, 1995)

Assays:
Format in all cases: functional
[1] = species: Rattus norvegicus; experiment: The equi-effective molar ratio of the concentration to that of dequalinium that cause 50% inhibition of the hyperpolarization (AHP)
[2] = species: Rattus norvegicus; experiment: Ratio of the negative logarithmic concentration to that of dequalinium that cause 50% inhibition of the hyperpolarization (AHP)
[3] = species: Rattus norvegicus; experiment: Ability to inhibit the hyperpolarization (AHP) in cultured rat sympathetic neurons; conditions: Sympathetic neuron

Structure (SMILES)	EMR [1]	pEMR [2]	IC50 [3] [µM]
c1ccc2c(c1)ccc[n+]2CCCCCCCCCC[n+]1cccc2ccccc21	15	-1.18	
Cc1cc(N)c2ccccc2[n+]1CCCCCCCCCC[n+]1c(C)cc(N)c2ccccc21.[Cl-].[Cl-] [DEQUALINIUM CHLORIDE]	1	0	
Cc1cc[n+](CCCCCCCCCC[n+]2ccc(C)c3ccccc32)c2ccccc12	26	-1.41	15
CN(C)c1cc[n+](CCCCCCCCCC[n+]2ccc(N(C)C)c3ccccc32)c2ccccc12	1.4	-0.15	1.4
Nc1cc[n+](CCCCCCCCCC[n+]2ccc(N)c3ccccc32)c2ccccc12	1.3	-0.11	1.4
c1ccc(Oc2cc[n+](CCCCCCCCCC[n+]3ccc(Oc4ccccc4)c4ccccc43)c3ccccc23)cc1	6.5	-0.81	2.7
c1ccc(Nc2cc[n+](CCCCCCCCCC[n+]3ccc(Nc4ccccc4)c4ccccc43)c3ccccc23)cc1	3.4	-0.53	2.4
CC(=O)Nc1cc[n+](CCCCCCCCCC[n+]2ccc(NC(C)=O)c3ccccc32)c2ccccc12	5.5	-0.74	4.5
